27 compounds from patent US20110135671A1, “PURINE DERIVATIVES FOR USE IN THE TREATMENT OF ALLERGIC, INFLAMMATORY AND INFECTIOUS DISEASES” (GLAXOSMITHKLINE LLC, priority 2008, published 2011) can be followed below.

Each structure is given as a SMILES string. Structures can show the parent of a compound that is named as a salt.

The test deals with Interferon-α. In words: Induction of Interferon-α using cryopreserved human PBMCs. The note with it: PBMC, 24 h, normalised to 1 uM resiquimod, read-out: mean pEC50 for induction of Interferon-α (converted). It is filed as cell-based. The protocol: Assay for the Induction of Interferon-α using Cryopreserved Human Peripheral Blood Mononuclear Cells (PBMCs)
Compounds were dissolved in DMSO. Serial 2-fold dilutions with DMSO were prepared and 0.25 μl dispensed into 384-well clear Greiner polypropylene plates.
Blood samples of up to 200 ml were obtained from healthy human donors. Whole blood in 25 ml volumes was overlaid onto 15 ml Ficoll gradients in Leucosep tubes, and centrifuged at 1000 g for 20 min. Cells in the band at the plasma/histopaque interface were carefully removed and washed twice with PBS (centrifuged at 400 g for 5 min to harvest). The final pellet was resuspended in freezing medium (90% Heat-inactivated serum, 10% DMSO) to a cell concentration of 4×10^7 cells/ml. The resuspended cells were then cryopreserved (frozen) using a rate controlled freezer, and stored at −140° C. for up to 4 months.
Incubation and Assay for Interferon-α
Immediately prior to assay, vials of cryopreserved (frozen) PBMCs were thawed rapidly in a water bath at 37° C. A 1:10 dilution of the cells in trypan blue was prepared and counted. The PBMCs were then diluted in growth media [RPMI 1640 containing 10% fetal calf serum (invitrogen), Penicillin+Streptavidin (Gibco cat. # 25030-024, 1:50), L-Glutamine 2 mM, and 1000 units/ml recombinant human IFN-gamma (Preprotech catalogue #300-02)] to a density of 1×10^6 cells/ml, and 50 ul/well dispensed to 384-well clear Greiner polypropylene plates containing 0.25 μl DMSO or test compound in 0.25 μl DMSO. […] Plates were incubated for 24 h at 37° C. in 5% CO2.
A multi-isoform immunoassay was used to quantify IFN-α in PBMC supernatants. Rabbit polyclonal antibody against human IFN-α (catalogue number 31101, Stratech Scientific) was diluted 1:10000 in assay buffer (RPMI 1640 containing 10% fetal calf serum, Invitrogen) and 20 μl was added to each well of an MSD (Meso-Scale Discovery) single small-spot 384-well GAR (goat anti-rabbit antibody coated) plate. The plate was incubated for 1 h at room temperature with vigorous shaking. Following three washes with PBS, 20 μl of cell supernatant were added to each well of the plate. The plate was then incubated for 1 h at room temperature with vigorous shaking. A pair of monoclonal antibodies to IFN-α (catalogue numbers 21100 and 21112, Stratech Scientific) were labelled with sulfo-TAG (MSD), diluted 1:1000 in assay buffer and 20 μl added to each well of the plate. The plate was further incubated for 1 h at room temperature with vigorous shaking. Following three washes with PBS, 30 μl of ×2 T buffer (MSD) was added to each well and the plate was read on an MSD Sector 6000 plate reader.
Data were normalised to internal plate controls of 1 uM resiquimod (n=16) and DMSO (n=16). pEC50 values were derived by 4-parameter curve fit with IRLS in ActivityBase, from 11-point, two-fold serial dilution of test compounds.
For `CCCCNc1nc(N)c2[nH]c(=O)n(CCCN3CCN(C4CCCCC4)CC3)c2n1` [Example 25, 6-Amino-2-(butylamino)-9-[3-(4-cyclohexyl-1-piperazinyl)propyl]-7,9-dihydro-8H-purin-8-one], the EC50 was less than 3.16 µM.

As to `CCCCOc1nc(N)c2[nH]c(=O)n(CCCCCN3CCN(C4CCCCC4)CC3)c2n1` [Example 64, 6-Amino-2-(butyloxy)-9-[5-(4-cyclohexyl-1-piperazinyl)pentyl]-7,9-dihydro-8H-purin-8-one], the EC50 is less than 3.16 µM. On to `CCCCOc1nc(N)c2[nH]c(=O)n(CCCN3CCN(C4CCCCC4)CC3)c2n1` [Example 15, 6-Amino-2-(butyloxy)-9-[3-(4-cyclohexyl-1-piperazinyl)propyl]-7,9-dihydro-8H-purin-8-one], for which the EC50 was less than 3.16 µM. As to `CCCCOc1nc(N)c2[nH]c(=O)n(CCCCCCN3CCN(C)CC3)c2n1` [Example 55, 6-Amino-2-(butyloxy)-9-[6-(4-methyl-1-piperazinyl)hexyl]-7,9-dihydro-8H-purin-8-one], the EC50 is less than 3.16 µM. On to `CCCCOc1nc(N)c2[nH]c(=O)n(CCCCCN3CCN(CC)CC3)c2n1` [Example 47, 6-Amino-2-(butyloxy)-9-[5-(4-ethyl-1-piperazinyl)pentyl]-7,9-dihydro-8H-purin-8-one], for which the EC50 was less than 3.16 µM. Under `CCCCOc1nc(N)c2[nH]c(=O)n(CCCN3CCN(C(C)C)CC3)c2n1` [Example 9, 6-Amino-2-(butyloxy)-9-{3-[4-(1-methylethyl)-1-piperazinyl]propyl}-7,9-dihydro-8H-purin-8-one] stands less than 3.16 µM. With `CCCCOc1nc(N)c2[nH]c(=O)n(CCCN3CCN(CC4CC4)CC3)c2n1` [Example 13, 6-Amino-2-(butyloxy)-9-{3-[4-(cyclopropylmethyl)-1-piperazinyl]propyl}-7,9-dihydro-8H-purin-8-one] the figure was less than 3.16 µM; with `CCCCNc1nc(N)c2[nH]c(=O)n(CCCN3CCN(CC(C)C)CC3)c2n1` [Example 21, 6-Amino-2-(butylamino)-9-{3-[4-(2-methylpropyl)-1-piperazinyl]propyl}-7,9-dihydro-8H-purin-8-one], less than 3.16 µM. `CCCCOc1nc(N)c2[nH]c(=O)n(CCCCN3CCN(CC4CC4)CC3)c2n1` [Example 33, 6-Amino-2-(butyloxy)-9-{4-[4-(cyclopropylmethyl)-1-piperazinyl]butyl}-7,9-dihydro-8H-purin-8-one]: the EC50 was less than 3.16 µM. Regarding `CCCCOc1nc(N)c2[nH]c(=O)n(CCN3CCN(C4CCCCC4)CC3)c2n1` [Example 2, 6-Amino-2-(butyloxy)-9-[2-(4-cyclohexyl-1-piperazinyl)ethyl]-7,9-dihydro-8H-purin-8-one dihydrochloride salt], the EC50 is less than 3.16 µM. As to `CCCCOc1nc(N)c2[nH]c(=O)n(CCCCCN3CCN(C4CCCC4)CC3)c2n1` [Example 63, 6-Amino-2-(butyloxy)-9-[5-(4-cyclopentyl-1-piperazinyl)pentyl]-7,9-dihydro-8H-purin-8-one], the EC50 was less than 3.16 µM. With `CCCCNc1nc(N)c2[nH]c(=O)n(CCCN3CCN(C4CCCC4)CC3)c2n1` [Example 24, 6-Amino-2-(butylamino)-9-[3-(4-cyclopentyl-1-piperazinyl)propyl]-7,9-dihydro-8H-purin-8-one], the EC50 is less than 3.16 µM.

Regarding `CC(C)N1CCN(CCCCn2c(=O)[nH]c3c(N)nc(OC4CCCC4)nc32)CC1` [Example 72, 6-Amino-2-(cyclopentyloxy)-9-{4-[4-(1-methylethyl)-1-piperazinyl]butyl}-7,9-dihydro-8H-purin-8-one], the EC50 was less than 3.16 µM. With `CCCCNc1nc(N)c2[nH]c(=O)n(CCN3CCN(C)CC3)c2n1` [Example 3, 6-Amino-2-(butylamino)-9-[2-(4-methyl-1-piperazinyl)ethyl]-7,9-dihydro-8H-purin-8-one], the EC50 is less than 3.16 µM. Consider `CC(C)Oc1nc(N)c2[nH]c(=O)n(CCCCCN3CCN(C(C)C)CC3)c2n1` [Example 70, 6-Amino-2-[(1-methylethyl)oxy]-9-{5-[4-(1-methylethyl)-1-piperazinyl]pentyl}-7,9-dihydro-8H-purin-8-one], for which the EC50 is less than 3.16 µM. Regarding `CCCCNc1nc(N)c2[nH]c(=O)n(CCCCN3CCN(CCC)CC3)c2n1` [Example 37, 6-Amino-2-(butylamino)-9-[4-(4-propyl-1-piperazinyl)butyl]-7,9-dihydro-8H-purin-8-one], the EC50 is less than 3.16 µM. With `CCCCNc1nc(N)c2[nH]c(=O)n(CCN3CCN(C(C)C)CC3)c2n1` [Example 4, 6-Amino-2-(butylamino)-9-{2-[4-(1-methylethyl)-1-piperazinyl]ethyl}-7,9-dihydro-8H-purin-8-one] the figure was less than 3.16 µM; with `CCCCOc1nc(N)c2[nH]c(=O)n(CCCN3CCN(CCCC)CC3)c2n1` [Example 10, 6-Amino-2-(butyloxy)-9-[3-(4-butyl-1-piperazinyl)propyl]-7,9-dihydro-8H-purin-8-one], less than 3.16 µM.

Consider `CCCCNc1nc(N)c2[nH]c(=O)n(CCCN3CCN(C(C)C)CC3)c2n1` [Example 19, 6-Amino-2-(butylamino)-9-{3-[4-(1-methylethyl)-1-piperazinyl]propyl}-7,9-dihydro-8H-purin-8-one], for which the EC50 is less than 3.16 µM. For the compound `CCC[C@H](C)Nc1nc(N)c2[nH]c(=O)n(CCCCN3CCN(C(C)C)CC3)c2n1` [Example 75, 6-Amino-2-{[(1S)-1-methylbutyl]amino}-9-{4-[4-(1-methylethyl)-1-piperazinyl]butyl}-7,9-dihydro-8H-purin-8-one], the EC50 is less than 3.16 µM.

With `CC(C)N1CCN(CCCCn2c(=O)[nH]c3c(N)nc(OC4CCC4)nc32)CC1` [Example 71, 6-Amino-2-(cyclobutyloxy)-9-{4-[4-(1-methylethyl)-1-piperazinyl]butyl}-7,9-dihydro-8H-purin-8-one], the EC50 was less than 3.16 µM. Regarding `CCC[C@@H](C)Nc1nc(N)c2[nH]c(=O)n(CCCCN3CCN(C(C)C)CC3)c2n1` [Example 74, 6-Amino-2-{[(1R)-1-methylbutyl]amino}-9-{4-[4-(1-methylethyl)-1-piperazinyl]butyl}-7,9-dihydro-8H-purin-8-one], the EC50 was less than 3.16 µM.

Consider `CCCCOc1nc(N)c2[nH]c(=O)n(CCCCCN3CCN(CCCC)CC3)c2n1` [Example 59, 6-Amino-2-(butyloxy)-9-[5-(4-butyl-1-piperazinyl)pentyl]-7,9-dihydro-8H-purin-8-one], for which the EC50 was less than 3.16 µM.

As for `CCCCCN1CCN(CCCCCn2c(=O)[nH]c3c(N)nc(OCCCC)nc32)CC1` [Example 60, 6-Amino-2-(butyloxy)-9-[5-(4-pentyl-1-piperazinyl)pentyl]-7,9-dihydro-8H-purin-8-one], the EC50 is less than 3.16 µM. Under `CCCCOc1nc(N)c2[nH]c(=O)n(CCCN3CCN(CC(C)C)CC3)c2n1` [Example 11, 6-Amino-2-(butyloxy)-9-{3-[4-(2-methylpropyl)-1-piperazinyl]propyl}-7,9-dihydro-8H-purin-8-one] stands less than 3.16 µM; under `CC(C)N1CCN(CCCCn2c(=O)[nH]c3c(N)nc(OC4CCCCC4)nc32)CC1` [Example 73, 6-Amino-2-(cyclohexyloxy)-9-{4-[4-(1-methylethyl)-1-piperazinyl]butyl}-7,9-dihydro-8H-purin-8-one], less than 3.16 µM. For the compound `CCCCOc1nc(N)c2[nH]c(=O)n(CCCN3CCN(C4CCCC4)CC3)c2n1` [Example 14, 6-Amino-2-(butyloxy)-9-[3-(4-cyclopentyl-1-piperazinyl)propyl]-7,9-dihydro-8H-purin-8-one], the EC50 is less than 3.16 µM.
